Reference: patent US6383479B1, “Neutrophil-activating factor” (Novartis AG, priority 1987, dated 2002)

Key:
thymocyte = thymocyte proliferation as a measure of IL-1 activity; assay type: cell-based; settings: phosphocellulose fractions
Method: Mononuclear cells obtained from donor blood buffy coats as described in Example 1 are cultured in MEM-PPL for 48 h in the presence of 100 ng/ml LPS in stirred culture bottles (1.5 liter, 5×10^6 cells/ml). The culture supernatants are then collected, centrifuged at 20000 rpm for 20 min. at 4° to remove particulate material, and loaded onto a 10 ml phosphocellulose column (Whatman P11, 1,4×6 cm) equilibrated with 20 mM potassium phosphate buffer, pH 7.2 containing 20 mM NaCl and 5% glycerol. The column is washed with 30 ml of the above buffer and then eluted with 90 ml of a linear NaCl concentration gradient (0.02 M to 1.5 M) in the same buffer. Fractions of 2 ml are collected in 0.1% polyethylene glycol and tested for NAF and IL-1 activity. Absorbance at 280 nm is monitored continuously as a measure of protein.
Most of the protein as well as the IL-1 activity are recovered in the flow-through volume. Elution with a linear NaCl gradient yields some IL-1 activity at low ionic strength followed by a peak of elastase-releasing activity corresponding to NAF, which starts to elute at 0.5 M and reaches its maximum at 0.8 M NaCl. The peak is symmetric and is preceded by a small shoulder.

human neutrophils [1] = assay: superoxide formation (SOD-sensitive cytochrome c reduction) by human neutrophils; assay type: cell-based; settings: per 10^6 cells
Method: a) Superoxide production: neutrophils (3×10^6 /ml) are preincubated at 37° with or without 1 μm PAF for 2 minutes and then stimulated with increasing amounts of NAF. Recordings of cytochrome c reduction following NAF addition are shown.
Superoxide formation is measured at 37° as the SOD sensitive reduction of ferricytochrome c (M. Markert et al., Methods Enzymol. 132 [1984] 267). The assay mixture (800 μl) consists of 0.75×10^6 cells/ml PBS-BSA containing 85 μM cytochrome c. Absorbance changes are recorded in a Hewlett-Packard 8451A diode array spectrophotometer equipped with a thermostated seven-place cuvette exchanger. Table 4 documents the capacity of NAF to elicit the respiratory burst in human neutrophils: […]

human neutrophils [2] = assay: hydrogen peroxide formation by chemiluminescence in human neutrophils; assay type: cell-based
Method: b) H2O2-dependent chemiluminescence: the progress curves following stimulation with partially purified NAF and approximately equiactive concentrations of C5a and fMLP are shown on the left. The initial phase of the response is detailed on the right. The stimulants are added in 50 μl of PBS-BSA.
Lower graphs: respiratory burst induced by natural (left) and recombinant (right) NAF. Neutrophils (10^6 cells/ml) are stimulated with 3, 10 and 30 nM NAF at time zero and hydrogen peroxide production is measured by chemiluminescence (M. P. Wymann et al., Anal. Biochem. 165 [1987] 371-378).
The properties of NAF, fMLP and C5a as stimuli of the respiratory burst are compared by assessing the production of superoxide or hydrogen peroxide by the stimulated cells. Superoxide formation is determined as described in Example 13. Hydrogen peroxide formation is determined by chemiluminescence (M. P. Wymann et al., Anal. Biochem. 165 [1987] 371-378). The assay mixture consisting of PBS-BSA containing 0.1 M sodium azide, 0.01 mM luminol, 9 U/ml horseradish peroxidase and 10^6 neutrophils is preincubated for 10 min at 37° and the reaction is started by adding the stimulus via a microsyringe.

neutrophils = assay: sequential/repeated stimulation of neutrophils (desensitization, superoxide formation); assay type: cell-based, human
Method: a) Neutrophils (3×10^6 /ml) are preincubated at 37° C. for 5 min. and then stimulated with different agonists as indicated (arrows).
b) Sequential or repeated stimulation with NAF and C5a. Conditions as in a).
Arrows show addition of agonists as indicated. The concentration of C5a is 0.5 nM in a) and 0.2 nM in b), that of fMLP is 20 nM in both experiments. The agonists are added in 50 μl of PBS-BSA.
On the other hand, when agonists acting on different receptors are used in sequence.(e.g. fMLP followed by C5a) these stimulations yield a normal response. Experiments of this type are therefore used to find out whether NAF acts by its own receptor or via a receptor also used by other agonists.

Rabbit neutrophils = assay: NAF-induced exocytosis in rabbit neutrophils (N-acetyl-β-glucosaminidase release); assay type: cell-based; settings: 15 min, cytochalasin B pretreated, purified natural NAF
Method: Rabbit neutrophils are isolated from peripheral blood (obtained from the ear vein or artery) by dextran sedimentation followed by Hypaque-Ficoll density gradient centrifugation. Purified natural NAF is used.
Exocytosis conditions: 0.6×10^6 cells (in a total volume of 0.15 ml) pretreated with cytochalasin B for 5 min at 37° are stimulated with NAF (0.1-100 nM) or fMLP (100 nM) for 15 min. N-acetyl-β-glucosaminidase, an azurophil granule marker, is determined in the cell-free medium.

[3] = test system: mouse, rat and guinea pig; assay: preliminary tests of NAF activity in mouse, rat and guinea pig
From the text: The biological properties of NAF are species-specific. Activity in the rabbit most closely mirrors activity in humans.

[4] = isoelectric point (chromatofocusing); assay type: physicochemical
Method: A sample of 4 ml of NAF partially purified by phosphocellulose chromatography (Example 4) is dialyzed against start buffer consisting of 25 mM ethanolamine-HCl, pH 9.4 and 0.1% polyethylene glycol 6000, and loaded onto a PBE 94 column (0.7×19 cm, Pharmacia) equilibrated with the same buffer. The column is then eluted with 200 ml of polybuffer 96-HCl (diluted 1:10 with water), pH 7.0, containing 0.1% polyethylene glycol 6000. 10-minute fractions are collected at a flow rate of 10-14 ml/h and assayed for NAF activity. Most of the activity elutes in the region of pH 8.5 to pH 8.8 (FIG. 9).

## neutrophil-activating factor [NAF]
thymocyte
  thymocyte proliferation-inducing activity (IL-1 activity): no thymocyte proliferation-inducing activity
Human neutrophils [1]; NAF 5 μl
  Cytochrome c reduction, Maximum rate: 0.81 nmol/min
  Cytochrome c reduction, Total in 3 min: 0.89 nmol
Human neutrophils [1]; NAF 10 μl
  Cytochrome c reduction, Maximum rate: 1.45 ± 0.63 nmol/min
  Cytochrome c reduction, Total in 3 min: 1.45 ± 0.50 nmol
Human neutrophils [1]; NAF 20 μl
  Cytochrome c reduction, Maximum rate: 2.32 ± 0.56 nmol/min
  Cytochrome c reduction, Total in 3 min: 2.16 ± 0.39 nmol
Human neutrophils [1]; NAF 30 μl
  Cytochrome c reduction, Maximum rate: 2.51 ± 0.50 nmol/min
  Cytochrome c reduction, Total in 3 min: 2.30 ± 0.55 nmol
Human neutrophils [1]; NAF 50 μl
  Cytochrome c reduction, Maximum rate: 3.51 ± 0.69 nmol/min
  Cytochrome c reduction, Total in 3 min: 3.10 ± 0.55 nmol
Human neutrophils [1]; NAF 100 μl
  Cytochrome c reduction, Maximum rate: 3.69 nmol/min
  Cytochrome c reduction, Total in 3 min: 3.39 nmol
Human neutrophils [2]
  time between stimulus addition and onset of H2O2 production: about 2 sec
neutrophils
  cross-desensitization in combinations of NAF with PAF, fMLP and leukotriene B4: fail to show cross-desensitization
neutrophils; superoxide formation
  cross-desensitization between NAF and C5a: no cross-desensitization
  desensitization to a second stimulation with the same agonist: complete desensitization
Rabbit neutrophils; stimulus 0.1 nM
  N-acetyl-β-glucosaminidase: 53 pmol/min
Rabbit neutrophils; stimulus 1.0 nM
  N-acetyl-β-glucosaminidase: 99 pmol/min
Rabbit neutrophils; stimulus 10.0 nM
  N-acetyl-β-glucosaminidase: 139 pmol/min
Rabbit neutrophils; stimulus 100.0 nM
  N-acetyl-β-glucosaminidase: 157 pmol/min
[3]
  activity in the mouse, rat and guinea pig: not shown any clear activity
[4]
  isoelectric point: approximately 8.6
